The record followed here is ChEMBL document CHEMBL5150063, “Discovery of Orally Bioavailable N-Benzylpiperidinol Derivatives as Potent and Selective USP7 Inhibitors with In Vivo Antitumor Immunity Activity against Colon Cancer” (J Med Chem, 2022).

Test [1] addresses T1, Ubiquitin carboxyl-terminal hydrolase 7 (Homo sapiens, UniProt Q93009). Nature of the test: Inhibition of full-length USP7 (unknown origin) using ubiquitin-rhodamine 110 as substrate preincubated for 30 mins followed by substrate addition and measured after 2 hrs by microplate spectrophotometer analysis.
The target of test [2] is T1, Ubiquitin carboxyl-terminal hydrolase 7. Briefly: Binding affinity to human USP7 (208 to 560 residues) by SPR method. In general terms: SPR reads the build-up and loss of mass on a sensor chip optically.
For test [3], the system named is MC-38. Nature of the test: Antitumor activity against mouse MC38 cells allografted in po dosed C57BL/6J mouse assessed as reduction in tumor growth administered once daily for 21 days. It counts as functional, organism-based. The settings on record: time 21.0 day, DDE = dose-dependent effect.
The subject of test [4] is MC-38. Nature of the test: Antitumor activity against mouse MC38 cells allografted in C57BL/6J mouse assessed as tumor growth inhibition at 100 mg/kg, po administered once daily for 21 days. It counts as functional. The settings on record: MC-38, 504 h, time 21 day, read-out: TGI.
The subject of test [5] is MC-38. Briefly: Antitumor activity against mouse MC38 cells allografted in C57BL/6J mouse assessed as tumor growth inhibition at 20 mg/kg, po administered once daily for 21 days. It counts as functional. The settings on record: MC-38, 504 h, time 21 day, read-out: TGI.
Test [6] relates to MC-38. Nature of the test: Antitumor activity against mouse MC38 cells allografted in C57BL/6J mouse assessed as decrease in spleen index at 20 to 100 mg/kg, po administered daily for 20 days. It counts as functional, organism-based. As to conditions: dose 20-100 mg/kg, time 20.0 day.
Test [7] relates to MC-38. Briefly: Antitumor activity against mouse MC38 cells allografted in C57BL/6J mouse assessed as upregulation of CD8+ T-cells in T-lymphocytes at 100 mg/kg, po administered daily for 20 days (reference value: 5.2%). It counts as functional. As to conditions: time 20 day.
The subject of test [8] is MC-38. Nature of the test: Antitumor activity against mouse MC38 cells allografted in C57BL/6J mouse assessed as upregulation of NKT-cells in CD45+ cells at 20 mg/kg, po administered daily for 20 days (reference value: […]). It counts as functional. The settings on record: time 20 day.
The subject of test [9] is MC-38. Briefly: Antitumor activity against mouse MC38 cells allografted in C57BL/6J mouse assessed as upregulation of NKT-cells in CD45+ cells at 100 mg/kg, po administered daily for 20 days (reference value: […]). It counts as functional. The settings on record: time 20 day.
In test [10] the test system is MC-38. Briefly: Antitumor activity against mouse MC38 cells allografted in C57BL/6J mouse assessed as upregulation of NK-cells in CD45+ cells at 20 mg/kg, po administered daily for 20 days (reference value: 3.7%). It counts as functional. The settings on record: time 20 day.
Test [11] deals with MC-38. Nature of the test: Antitumor activity against mouse MC38 cells allografted in C57BL/6J mouse assessed as upregulation of NK-cells in CD45+ cells at 100 mg/kg, po administered daily for 20 days (reference value: 3.7%). It counts as functional. The settings on record: time 20 day.
Test [12] concerns MC-38. Nature of the test: Antitumor activity against mouse MC38 cells allografted in C57BL/6J mouse assessed as downregulation of Treg in CD4+ T-cells at 100 mg/kg, po administered daily for 20 days (reference value: 10.1%). It counts as functional. As to conditions: time 20 day.
In test [13] the test system is MC-38. Briefly: Antitumor activity against mouse MC38 cells allografted in C57BL/6J mouse assessed as downregulation of MDCS in CD45+ […] at 100 mg/kg, po administered daily for 20 days (reference value: 27.9%). The settings on record: time 20 day. It counts as functional.
In test [14] the test system is MC-38. Nature of the test: Antitumor activity against mouse MC38 cells allografted in C57BL/6J mouse assessed as increase in M1 cells at 20 mg/kg, po administered daily for 20 days. It counts as functional, organism-based. As to conditions: time 20.0 day.
The test system of test [15] is MC-38. Nature of the test: Antitumor activity against mouse MC38 cells allografted in C57BL/6J mouse assessed as decrease in M2 cells at 20 mg/kg, po administered daily for 20 days. It counts as functional, organism-based. As to conditions: time 20.0 day.
Test [16] deals with MC-38. Nature of the test: Antitumor activity against mouse MC38 cells allografted in C57BL/6J mouse assessed as increase in ratio of M1 to M2 cells at 20 mg/kg, po administered daily for 20 days. It counts as functional, organism-based. The settings on record: time 20.0 day.
In test [17] the test system is MC-38. Nature of the test: Antitumor activity against mouse MC38 cells allografted in C57BL/6J mouse assessed as increase in TNFalpha level at 20 mg/kg, po administered daily for 20 days by ELISA (reference value: […]). It counts as functional. The settings on record: time 20 day. In general terms: In an ELISA, binding on a coated surface is turned into a signal by an enzyme label.

Test [18] concerns MC-38. Nature of the test: Antitumor activity against mouse MC38 cells allografted in C57BL/6J mouse assessed as increase in TNFalpha level at 100 mg/kg, po administered daily for 20 days by ELISA (reference value: […]). It counts as functional. As to conditions: time 20 day.
Test [19] concerns MC-38. Briefly: Antitumor activity against mouse MC38 cells allografted in C57BL/6J mouse assessed as increase in INFalpha level at 100 mg/kg, po administered daily for 20 days by ELISA. It counts as functional, organism-based. As to conditions: time 20.0 day.
Test [20] has as its system MC-38. Briefly: Antitumor activity against mouse MC38 cells allografted in C57BL/6J mouse assessed as increase in IL-2 level at 100 mg/kg, po administered daily for 20 days by ELISA. It counts as functional, organism-based. As to conditions: time 20.0 day.

SMILES strings stand for the structures. Calls of active or inactive are those of the source. The calls are words filed in the database; no cut-off is given here.

T1 sequence (Q93009 whole entry, the tested form may be a part): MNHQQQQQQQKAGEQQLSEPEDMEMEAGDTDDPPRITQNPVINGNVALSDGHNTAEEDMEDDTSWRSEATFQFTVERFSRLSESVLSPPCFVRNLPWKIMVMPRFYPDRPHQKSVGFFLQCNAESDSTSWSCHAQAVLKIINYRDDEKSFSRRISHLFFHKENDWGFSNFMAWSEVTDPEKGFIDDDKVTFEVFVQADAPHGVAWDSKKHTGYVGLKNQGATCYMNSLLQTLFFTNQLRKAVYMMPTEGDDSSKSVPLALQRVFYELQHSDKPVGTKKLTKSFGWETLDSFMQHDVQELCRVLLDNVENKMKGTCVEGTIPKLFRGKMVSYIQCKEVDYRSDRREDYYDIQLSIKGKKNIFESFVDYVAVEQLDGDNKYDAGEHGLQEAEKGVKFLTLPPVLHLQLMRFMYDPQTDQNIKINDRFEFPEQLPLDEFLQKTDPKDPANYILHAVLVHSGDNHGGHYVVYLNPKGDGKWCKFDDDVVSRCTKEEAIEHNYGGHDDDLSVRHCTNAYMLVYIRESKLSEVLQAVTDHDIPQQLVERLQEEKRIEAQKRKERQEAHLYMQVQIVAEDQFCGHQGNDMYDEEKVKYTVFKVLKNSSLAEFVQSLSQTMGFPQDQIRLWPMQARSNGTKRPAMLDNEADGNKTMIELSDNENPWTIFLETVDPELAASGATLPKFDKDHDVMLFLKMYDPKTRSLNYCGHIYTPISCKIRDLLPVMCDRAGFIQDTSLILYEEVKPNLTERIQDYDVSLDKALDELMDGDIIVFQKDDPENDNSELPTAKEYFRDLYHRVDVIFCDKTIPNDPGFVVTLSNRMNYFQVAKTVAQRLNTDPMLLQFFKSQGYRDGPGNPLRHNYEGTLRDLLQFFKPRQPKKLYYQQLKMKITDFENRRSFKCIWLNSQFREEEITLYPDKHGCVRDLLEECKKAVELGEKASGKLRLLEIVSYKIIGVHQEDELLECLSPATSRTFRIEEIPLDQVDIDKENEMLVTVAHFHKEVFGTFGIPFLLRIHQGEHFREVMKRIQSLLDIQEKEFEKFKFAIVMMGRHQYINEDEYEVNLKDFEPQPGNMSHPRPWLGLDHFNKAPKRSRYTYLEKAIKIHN

Turning to `Cn1nc2c(=O)n(CC3(O)CCN(Cc4ccc(-c5ccco5)cc4Cl)CC3)cnc2c1-c1ccc(F)cc1`, the IC50 – broadly, the midpoint of a concentration-inhibition curve – in test [1] was found to be 64.5 nM. For the same compound, binding in test [2] was put at a Kd of 541 nM. Also, the Activity entry in the test on MC-38 [3] is “Dde”; with MC-38 [7], 9.9%; in the test on MC-38 [8], 9.8%; in the test with MC-38 [9], 18%; in the test on MC-38 [10], 7.5%; in the test with MC-38 [11] it was 12.2%. Also, the Activity turned out to be 5.8% in the test with MC-38 [12], 11.4% in the test with MC-38 [13], 2.66 pg/mL in the test on MC-38 [17] and 2.79 pg/mL in the test on MC-38 [18]. Moreover, the inhibition in vivo at 100 mg/kg in the test on MC-38 [4] came to 74.2%. For the same compound, the inhibition in vivo at 20 mg/kg in the test with MC-38 [5] turned out to be 36.6%. For the same compound, the outcome in the test on MC-38 [6], in the test on MC-38 [14], with MC-38 [15], in the test on MC-38 [16], in the test with MC-38 [19] and in the test with MC-38 [20] was Active.
